Read-outs that look alike come from different tables or passages of the source.

The source of these data is patent publication US20110275643A1, “AROYLQUINOLINE COMPOUNDS” (NATIONAL HEALTH RESEARCH INSTITUTES, priority 2010, published 2011).

Series [1] concerns colorectal carcinoma HT29 cells. Put plainly: In vitro cell growth inhibition, methylene blue dye assay, HT29 cells. Type of series: cell-based, Human. Particulars: Homo sapiens, read-out: IC50 on the proliferation of cells, HT29. Here is the method: (§1) Human oral epidermoid carcinoma KB cells, non-small-cell lung carcinoma H460 cells, colorectal carcinoma HT29 cells and stomach carcinoma MKN45 cells were maintained in RMPI-1640 medium supplied with 5% fetal bovine serum (FBS). […] Cells in logarithmic phase were cultured at a density of 5000 cells/mL/well in a 24-well plate. KB-VIN10 cells were cultured in drug-free medium for 3 days prior to use. The cells were exposed to various concentrations of the test drugs for 72 hours. The methylene blue dye assay was used to evaluate the effect of the test compounds on cell growth (Finlay et al., 1984).

Series [2] has as its system stomach carcinoma MKN45 cells. Put plainly: In vitro cell growth inhibition, methylene blue dye assay, MKN45 cells. It counts as cell-based, Human. Particulars: Homo sapiens, read-out: IC50 on the proliferation of cells, MKN45. Here is the method:
as §1

Series [3] deals with KB-VIN10 cells (overexpression of P-gp170/MDR). Put plainly: In vitro cell growth inhibition, methylene blue dye assay, MDR-positive KB-VIN10 cells. It counts as cell-based, Human. Particulars: Homo sapiens, read-out: IC50 on the proliferation of cells, KB-VIN10. As to the method:
as §1

In series [4] the test system is non-small-cell lung carcinoma H460 cells. Put plainly: In vitro cell growth inhibition, methylene blue dye assay, H460 cells. It counts as cell-based, Human. Particulars: Homo sapiens, read-out: IC50 on the proliferation of cells, H460. As to the method: as §1
Series [5] concerns oral epidermoid carcinoma KB cells. Put plainly: In vitro cell growth inhibition, methylene blue dye assay, KB cells. It counts as cell-based, Human. Particulars: Homo sapiens. Here is the method: as §1
For series [6], the system named is five cancer cell lines (KB, H460, HT29, MKN45, KB-VIN10). Put plainly: Antiproliferative activity, mean over five cancer cell lines. Type of series: cell-based, Human. As to the method: The synthesized compounds 5 to 17 were evaluated for antiproliferative activities against four carcinoma cells, oral epidermoid carcinoma KB cells, non-small-cell lung carcinoma H460 cells, colorectal carcinoma HT29 cells and stomach carcinoma MKN45 cells, as well as the MDR-positive cell lines KB-VIN10, that overexpressed P-gp 170/MDR (Table 1). The controls were compounds 1 and 3.
as §1

Where [7] appears, read: HT-29, HT29 cells, 72 hours, mean ± SD.
Setting [8] is: MKN-45, MKN45 cells, 72 hours, mean ± SD.
[9] abbreviates: KB-VIN10 cells, 72 hours, mean ± SD.
Setting [10] is: NCI-H460, H460 cells, 72 hours, mean ± SD.
[11] abbreviates: KB cells, 72 hours, mean ± SD, read-out: IC50 on the proliferation of cells, KB.
Setting [12] is: read-out: 50% Inhibition concentration (IC50) on the proliferation of KB cells line, Table 2, KB cells.

As for `COc1cc(C(=O)c2cnc3ccccc3c2)cc(OC)c1OC` [Compound 6, 3-(3′,4′,5′-trimethoxybenzoyl)quinoline], the melting point (in general, the temperature of the solid-liquid transition) is 107 to 109 °C. The IC50 in series [1] (setting [7]) is 1000 ± 210 nM. Also, the IC50 in series [2] (setting [8]) came out at 562 ± 42 nM. Further, in series [3] (setting [9]), the IC50 was 1100 ± 220 nM. Also, the IC50 in series [4] (setting [10]) turned out to be 1.6 ± 0.38 µM. For the same compound, the IC50 in series [5] (setting [11]) is 1800 ± 100 nM.

For the compound `COc1cc(C(=O)c2ccnc3ccccc23)cc(OC)c1OC` [Compound 7, 4-(3′,4′,5′-trimethoxybenzoyl)quinoline], the melting point lay within 109 to 110 °C. In addition, the IC50 in series [1] (HT-29, 72 h) was 2300 ± 480 nM. Also, the IC50 in series [2] (MKN-45, 72 h) came out at 920 ± 90 nM. The IC50 in series [3] (KB-VIN10, 72 h) was 2200 ± 600 nM. Further, the IC50 in series [4] (NCI-H460, 72 h) came to 3.8 ± 0.52 µM. Also, the IC50 in series [5] (KB, 72 h, read-out: IC50 on the proliferation of cells, KB) amounted to 3500 ± 700 nM.

The compound `COc1cc(C(=O)c2cccc3ncccc23)cc(OC)c1OC` [Compound 8, 5-(3′,4′,5′-trimethoxybenzoyl)quinoline] displayed a melting point of 145 to 147 °C. Also, the IC50 in series [1] (setting [7]) was 2800 ± 310 nM. In addition, in series [2] (setting [8]), the IC50 worked out at 1200 ± 150 nM. In addition, the IC50 in series [3] (setting [9]) was determined as 2300 ± 400 nM. Besides, the IC50 in series [4] (setting [10]) was determined as 3.8 ± 0.62 µM. Moreover, in series [5] (setting [11]), the IC50 was found to be 2900 ± 400 nM.

Consider `COc1cc(C(=O)c2ccc3cccnc3c2)cc(OC)c1OC` [Compound 10, 7-(3′,4′,5′-trimethoxybenzoyl)quinoline], for which the melting point is 149 to 151 °C. Further, the IC50 in series [1] (setting [7]) was more than 10000 nM. For the same compound, the IC50 in series [2] (setting [8]) is more than 10000 nM. The IC50 in series [3] (setting [9]) was more than 10000 nM. The “cytotoxicity / antiproliferative activity in words” value in series [6] is on record as “loss of cytotoxicity”. The IC50 in series [4] (setting [10]) was more than 10 µM. Also, the IC50 in series [5] (setting [11]) was more than 10000 nM.

`COc1cc(C(=O)c2cccc3cccnc23)cc(OC)c1OC` [Compound 11, 8-(3′,4′,5′-trimethoxybenzoyl)quinoline] yielded a melting point of 153 to 155 °C. The IC50 in series [1] (setting [7]) is 4500 ± 1100 nM. Also, in series [2] (setting [8]), the IC50 was determined as 3200 ± 700 nM. In series [3] (setting [9]), the IC50 turned out to be 6000 ± 800 nM. The IC50 in series [4] (setting [10]) was found to be 5 ± 0.92 µM. Further, the IC50 in series [5] (setting [11]) came out at 8100 ± 700 nM.

Take `COc1cc(C(=O)c2ccc3c(-c4ccc(O)cc4)c(OC)ccc3n2)cc(OC)c1OC` [Compound 30, 5-(4″-hydroxyphenyl)-6-methoxy-2-(3′,4′,5′-trimethoxybenzoyl)quinoline]: the melting point was in the range of 201 to 203 °C. For the same compound, the IC50 in series [5] (setting [12]) was more than 10000 nM.

Compound `COc1cc(C(=O)c2ccc3c(-c4ccncc4)c(OC)ccc3n2)cc(OC)c1OC` [Compound 33, 6-methoxy-5-pyridinyl-2-(3′,4′,5′-trimethoxybenzoyl)quinoline] gave a melting point of 203 to 205 °C. In addition, in series [5] (setting [12]), the IC50 came to 472 nM.

`COc1cc(C(=O)c2ccc3c(I)c(OC)ccc3n2)cc(OC)c1OC` [Compound 34, 5-iodo-6-methoxy-2-(3′,4′,5′-trimethoxybenzoyl)quinoline] came in with a melting point of 202 to 204 °C. Besides, the IC50 in series [5] (setting [12]) was 451 nM.

For `COc1cc(C(=O)c2ccc3c(Br)c(OC)ccc3n2)cc(OC)c1OC` [Compound 42, 5-bromo-6-methoxy-2-(3′,4′,5′-trimethoxybenzoyl)quinoline], the melting point lay within 163 to 165 °C. Also, in series [5] (setting [12]), the IC50 is 108 nM.

As to `COc1cc(C(=O)c2ccc3c(C#N)c(OC)ccc3n2)cc(OC)c1OC` [Compound 43, 5-cyano-6-methoxy-2-(3′,4′,5′-trimethoxybenzoyl)quinoline], the melting point was in the range of 191 to 192 °C. Besides, the IC50 in series [5] (setting [12]) was determined as 17 nM.

`COc1cc(C(=O)c2ccc3c(C#CC(C)(C)O)c(OC)ccc3n2)cc(OC)c1OC` [Compound 44, 5-(3″-hydroxy-3″-methylbut-1″-ynyl)-6-methoxy-2-(3′,4′,5′-trimethoxybenzoyl)quinoline] gave a melting point of 151 to 153 °C. Moreover, the IC50 in series [5] (setting [12]) was 495 nM.

`COc1cc(C(=O)c2ccc3c(Cl)c(OC)ccc3n2)cc(OC)c1OC` [Compound 47, 5-chloro-6-methoxy-2-(3′,4′,5′-trimethoxybenzoyl)quinoline] had a melting point of 176 to 177 °C. Further, the IC50 in series [5] (setting [12]) was 45 nM.

As for `COc1ccc(C(=O)c2ccc3c(OC)c(OC)c(OC)cc3n2)cc1` [Compound 49, 2-(4′-methoxybenzoyl)-5,6,7-trimethoxyquinoline], the melting point fell in the range of 103 to 105 °C. The IC50 in series [5] (setting [12]) was more than 1000 nM.

The compound `COc1ccc(C(=O)c2ccc3c(OC)c(OC)c(OC)cc3n2)cc1F` [Compound 50, 2-(3′-fluoro-4′-methoxybenzoyl)-5,6,7-trimethoxyquinoline] had a melting point of 137 to 139 °C. Also, the IC50 in series [5] (setting [12]) is more than 10000 nM.

As to `COc1cc2nc(C(=O)c3ccc(F)cc3)ccc2c(OC)c1OC` [Compound 51, 2-(4′-fluorobenzoyl)-5,6,7-trimethoxyquinoline], the melting point fell in the range of 145 to 146 °C.

For the compound `COc1ccc(C(=O)c2ccnc3c(OC)c(OC)c(OC)cc23)cc1` [Compound 54, 4-(4′-methoxybenzoyl)-6,7,8-trimethoxyquinoline], the IC50 in series [5] (setting [12]) stood at 1300 nM.

In turn, `COc1cc(-c2ccc3c(N)c(OC)ccc3n2)cc(OC)c1OC` [Compound 58, 5-amino-6-methoxy-2-(3′,4′,5′-trimethoxyphenyl)quinoline] returned a melting point of 222 to 223 °C. Moreover, the IC50 in series [5] (setting [12]) is more than 10000 nM.

Compound `COc1cc(Oc2ccc3c(N)c(OC)ccc3n2)cc(OC)c1OC` [Compound 60, 5-amino-6-methoxy-2-(3′,4′,5′-trimethoxyphenoxy)quinoline] returned a melting point of 209 to 210 °C.

Take `COc1cc(Nc2ccc3c(N)c(OC)ccc3n2)cc(OC)c1OC` [Compound 62, 5-amino-6-methoxy-2-(3′,4′,5′-trimethoxyphenylamino)quinoline]: the melting point lay in the range of 222 to 223 °C. Besides, the IC50 in series [5] (setting [12]) was more than 10000 nM.

`COc1ccc(-c2ccc3c(OC)c(OC)c(OC)cc3n2)cc1` [Compound 64, 2-(4′-methoxyphenyl)-5,6,7-trimethoxyquinoline] showed a melting point of 136 to 137 °C. Also, the IC50 in series [5] (setting [12]) is more than 10000 nM.

Turning to `COc1cc2nc(-c3ccc(N(C)C)cc3)ccc2c(OC)c1OC` [Compound 65, 2-[4′-(N,N-dimethylamino)phenyl]-5,6,7-trimethoxyquinoline], the melting point was 154 to 155 °C. Further, the IC50 in series [5] (setting [12]) was more than 10000 nM.

`COc1ccc(-c2ccc3c(OC)c(OC)c(OC)cc3n2)cc1F` [Compound 66, 2-(3′-fluoro-4′-methoxyphenyl)-5,6,7-trimethoxyquinoline] displayed a melting point of 129 to 130 °C. Moreover, the IC50 in series [5] (setting [12]) is more than 10000 nM.

Compound `COc1ccc(C(=O)c2ccnc3c(OC)c(OC)c(OC)cc23)cc1F` [Compound 67, 4-(3′-fluoro-4′-methoxybenzoyl)-6,7,8-trimethoxyquinoline] registered a melting point of 117 to 118 °C. For the same compound, in series [5] (setting [12]), the IC50 is 1670 nM.

As for `COc1cc2c(C(=O)c3ccc(N(C)C)cc3)ccnc2c(OC)c1OC` [Compound 68, 4-[4′-(N,N-dimethyl)-benzoyl]-6,7,8-trimethoxyquinoline], the IC50 in series [5] (setting [12]) worked out at 226 nM.

On to `COc1cc(C(=O)c2ccc3nccnc3c2)cc(OC)c1OC` [Compound 75, 6-(3′,4′,5′-trimethoxybenzoyl)quinoxaline], for which the melting point lay in the range of 149 to 151 °C.

In the case of `COc1cc(Sc2ccc3c(N)c(OC)ccc3n2)cc(OC)c1OC` [Compound 82, 5-amino-6-methoxy-2-(3′,4′,5′-trimethoxyphenylthio)quinoline], the IC50 in series [5] (setting [12]) is less than 10 nM.

Turning to `COc1cc(S(=O)(=O)c2ccc3c(N)c(OC)ccc3n2)cc(OC)c1OC` [Compound 84, 5-amino-6-methoxy-2-(3′,4′,5′-trimethoxyphenylsulfonyl)quinoline], the IC50 in series [5] (setting [12]) is less than 10 nM.

Take `COc1cc(C(=O)c2ccc3c(O)c(OC)ccc3n2)cc(OC)c1O` [Compound 87, 5-hydroxy-6-methoxy-2-(4′-hydroxy-3′,5′-dimethoxybenzoyl)quinoline]: in series [5] (setting [12]), the IC50 came out at 471 nM.
